Activity calls are given as the source filed them. No cut-off for these calls is given here. Numbered stars: 1 amine (or outer) side, 2 acyl side, 3 side chain; on linkers, the order of the positions; unused ones are H or OH. Square brackets hold non-standard residues; d marks the D form. Peptide text beside a SMILES is read from it. * marks the point of attachment. cisHyp = O=C(O)[C@@H]1C[C@H](O)CN1; NMeR = CN[C@@H](CCCNC(=N)N)C(=O)O; Hyp = O=C(O)[C@@H]1C[C@@H](O)CN1; Chg = N[C@H](C(=O)O)C1CCCCC1; Phg = N[C@H](C(=O)O)c1ccccc1; Tle = CC(C)(C)[C@H](N)C(=O)O; NMeV = CN[C@H](C(=O)O)C(C)C; αMeP = C[C@@]1(C(=O)O)CCCN1; Pip = O=C(O)[C@@H]1CCCCN1; Ac6c = NC1(C(=O)O)CCCCC1; Ac5c = NC1(C(=O)O)CCCC1; Cbz = O=C(OCc1ccccc1)*; CO = O=C([*:1])[*:2]; Bz = O=C(c1ccccc1)*; NHPh = c1ccc(N*)cc1; CH2F = FC*
How the values were obtained:
[1] = tested on: OCI-Ly3; assay: Antiproliferative activity against human OCI-LY3 cells assessed as growth inhibition treated every 48 hrs measured after 96 hrs by CellTiter-Glo assay; format: functional
[2] = target: T1, Mucosa-associated lymphoid tissue lymphoma translocation protein 1 (Homo sapiens, UniProt Q9UDY8); assay: Inhibition of recombinant LZ-fused MALT1 (340 to 789 residues) (unknown origin) using Ac-LRSR-AMC as substrate by fluorescence assay
T1 sequence (Q9UDY8 whole entry): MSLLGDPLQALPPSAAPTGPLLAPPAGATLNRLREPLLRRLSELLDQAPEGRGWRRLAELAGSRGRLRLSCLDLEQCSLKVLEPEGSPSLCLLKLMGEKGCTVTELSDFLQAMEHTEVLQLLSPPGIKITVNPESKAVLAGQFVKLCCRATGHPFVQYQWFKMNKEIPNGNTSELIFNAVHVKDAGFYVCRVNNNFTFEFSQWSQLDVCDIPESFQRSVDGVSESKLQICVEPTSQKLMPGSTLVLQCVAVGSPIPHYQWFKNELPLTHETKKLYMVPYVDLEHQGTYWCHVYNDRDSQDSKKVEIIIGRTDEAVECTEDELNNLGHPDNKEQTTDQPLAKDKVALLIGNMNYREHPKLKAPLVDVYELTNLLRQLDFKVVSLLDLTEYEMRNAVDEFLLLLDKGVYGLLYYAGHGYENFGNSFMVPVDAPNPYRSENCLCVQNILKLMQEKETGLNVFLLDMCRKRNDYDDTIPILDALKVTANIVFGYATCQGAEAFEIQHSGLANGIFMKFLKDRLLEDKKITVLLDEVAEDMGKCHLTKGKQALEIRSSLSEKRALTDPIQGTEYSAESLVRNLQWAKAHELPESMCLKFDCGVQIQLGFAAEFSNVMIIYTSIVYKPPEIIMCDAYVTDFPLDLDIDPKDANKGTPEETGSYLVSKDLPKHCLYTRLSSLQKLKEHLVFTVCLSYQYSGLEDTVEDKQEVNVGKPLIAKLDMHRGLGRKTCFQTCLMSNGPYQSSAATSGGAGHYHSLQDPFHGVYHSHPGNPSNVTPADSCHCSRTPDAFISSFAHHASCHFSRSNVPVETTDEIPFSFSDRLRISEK

[3] = tested on: OCI-Ly1; assay: Antiproliferative activity against human OCI-LY1 cells up to 20 uM; format: functional, cell-based
[4] = target: T2, Mucosa-associated lymphoid tissue lymphoma translocation protein 1 (Homo sapiens) (UniProt Q9UDY8); assay: Inhibition of MALT1 (unknown origin) expressed in PMA/IO-stimulated human Raji Glosensor cells by reporter gene assay; format: cell-based
T2 sequence (whole entry): T1 sequence (Q9UDY8 whole entry)

GI50 [1]	Compound	also measured
1240 nM	CC(C)[C@H](NC(=O)c1ccc(Cl)cc1)C(=O)N1CCC[C@H]1C(=O)N[C@@H](CCCNC(=N)N)C(=O)CF	–
730 nM	CC(C)[C@H](NC(=O)OCc1ccccc1)C(=O)N1CCCC[C@H]1C(=O)N[C@@H](CCCNC(=N)N)C(=O)CF (Cbz-Val-[Pip]-Arg-CH2F)	–
8520 nM	CC(C)[C@H](NC(=O)OCc1ccccc1)C(=O)N1CCC[C@H]1C(=O)N[C@@H](CCCNC(=N)N)C(=O)CF (Cbz-Val-Pro-Arg-CH2F)	Activity [3]: inactive
940 nM	CC(C)[C@H](NC(=O)C1CCCCC1)C(=O)N1CCC[C@H]1C(=O)N[C@@H](CCCNC(=N)N)C(=O)CF	–
1520 nM	CC(C)[C@H](NC(=O)Nc1ccccc1)C(=O)N1CCC[C@H]1C(=O)N[C@@H](CCCNC(=N)N)C(=O)CF ({NHPh-CO}-Val-Pro-Arg-CH2F)	–
2440 nM	CC[C@H](C)[C@H](NC(=O)OCc1ccccc1)C(=O)N1CCC[C@H]1C(=O)N[C@@H](CCCNC(=N)N)C(=O)CF (Cbz-Ile-Pro-Arg-CH2F)	–
130 nM	N=C(N)NCCC[C@H](NC(=O)[C@@H]1CCCN1C(=O)[C@@H](NC(=O)c1ccc(Br)cc1)C1CCCCC1)C(=O)CF	–
780 nM	CC(C)[C@H](NC(=O)Nc1ccc(Cl)cc1)C(=O)N1CCC[C@H]1C(=O)N[C@@H](CCCNC(=N)N)C(=O)CF	–
770 nM	CC(C)[C@H](NC(=O)c1ccc(Br)cc1)C(=O)N1CC[C@H]1C(=O)N[C@@H](CCCNC(=N)N)C(=O)CF	–
> 20000 nM	CN[C@H](C(=O)N1CCC[C@H]1C(=O)N[C@@H](CCCNC(=N)N)C(=O)CF)C(C)C (H-[NMeV]-Pro-Arg-CH2F)	Ki [2]: > 200 nM; Activity [3]: inactive
1670 nM	COc1ccc(C(=O)N[C@H](C(=O)N2CCC[C@H]2C(=O)N[C@@H](CCCNC(=N)N)C(=O)CF)C(C)C)cc1	–
6660 nM	CC(C)[C@H](NC(=O)c1ccc(C#N)cc1)C(=O)N1CCC[C@H]1C(=O)N[C@@H](CCCNC(=N)N)C(=O)CF	–
> 20000 nM	CC(C)[C@@H](C(=O)N1CCC[C@H]1C(=O)N[C@@H](CCCNC(=N)N)C(=O)CF)N(C)C(=O)OCc1ccccc1 (Cbz-[NMeV]-Pro-Arg-CH2F)	Activity [3]: inactive
270 nM	CC(C)c1ccc(C(=O)N[C@H](C(=O)N2CCC[C@H]2C(=O)N[C@@H](CCCNC(=N)N)C(=O)CF)C(C)C)cc1	–
120 nM	CC(C)[C@H](NC(=O)c1ccc(C(F)(F)F)cc1)C(=O)N1CCC[C@H]1C(=O)N[C@@H](CCCNC(=N)N)C(=O)CF	–
1450 nM	N=C(N)NCCC[C@H](NC(=O)[C@@H]1CCCN1C(=O)[C@@H](NC(=O)OCc1ccccc1)C1CCCCC1)C(=O)CF (Cbz-[Chg]-Pro-Arg-CH2F)	–
660 nM	CC(C)[C@H](NC(=O)c1ccccc1)C(=O)N1CCC[C@H]1C(=O)N[C@@H](CCCNC(=N)N)C(=O)CF (Bz-Val-Pro-Arg-CH2F)	–
530 nM	CC(C)[C@H](NC(=O)c1cccc(Br)c1)C(=O)N1CCC[C@H]1C(=O)N[C@@H](CCCNC(=N)N)C(=O)CF	–
> 20000 nM	CC(C)[C@H](NC(=O)c1ccc(Br)cc1)C(=O)N1CCC[C@@H]1C(=O)N[C@@H](CCCNC(=N)N)C(=O)CF	IC50 [4]: 17500 nM
4240 nM	CC(C)[C@H](NC(=O)c1ccccc1Br)C(=O)N1CCC[C@H]1C(=O)N[C@@H](CCCNC(=N)N)C(=O)CF	–

The remaining lines, values behind:

Compound	GI50 [1]	also measured
N=C(N)NCCC[C@H](NC(=O)[C@H](CO)NC(=O)[C@@H](NC(=O)c1ccc(Br)cc1)C1CCCCC1)C(=O)CF	240 nM	–
N=C(N)NCCC[C@H](NC(=O)[C@@H]1CCCN1C(=O)C1(NC(=O)OCc2ccccc2)CCCCC1)C(=O)CF (Cbz-[Ac6c]-Pro-Arg-CH2F)	6230 nM	–
CC(C)[C@H](NC(=O)OCc1ccccc1)C(=O)N1CCC[C@H]1C(=O)N(C)[C@@H](CCCNC(=N)N)C(=O)CF (Cbz-Val-Pro-[NMeR]-CH2F)	–	Ki [2]: > 5000 nM; Activity [3]: inactive
CC(C)[C@H](NC(=O)OCc1ccccc1)C(=O)N[C@@H](CO)C(=O)N[C@@H](CCCNC(=N)N)C(=O)CF	290 nM	–
CC(C)[C@H](NC(=O)OCc1ccccc1)C(=O)N1CCC[C@@]1(C)C(=O)N[C@@H](CCCNC(=N)N)C(=O)CF (Cbz-Val-[αMeP]-Arg-CH2F)	10500 nM	–
N=C(N)NCCC[C@H](NC(=O)[C@@H]1C[C@@H](O)CN1C(=O)[C@@H](NC(=O)c1ccc(Br)cc1)C1CCCCC1)C(=O)CF	60 nM	–
CC(C)(C)[C@H](NC(=O)OCc1ccccc1)C(=O)N1CCC[C@H]1C(=O)N[C@@H](CCCNC(=N)N)C(=O)CF (Cbz-[Tle]-Pro-Arg-CH2F)	1440 nM	–
CC(C)[C@H](NC(=O)c1ccc(Br)cc1)C(=O)N1COC[C@H]1C(=O)N[C@@H](CCCNC(=N)N)C(=O)CF	120 nM	–
CC(C)[C@H](NC(=O)OCc1ccccc1)C(=O)N[C@@H](CCCNC(=N)N)C(=O)N1CCC[C@H]1C(=O)N[C@@H](CCCNC(=N)N)C(=O)CF	8220 nM	Ki [2]: 140 nM; Activity [3]: inactive
N=C(N)NCCC[C@H](NC(=O)[C@@H]1CCCN1C(=O)[C@H](Cc1ccccc1)NC(=O)OCc1ccccc1)C(=O)CF	2200 nM	–
CC(C)[C@H](NC(=O)OCc1ccccc1)C(=O)N1C[C@@H](O)C[C@H]1C(=O)N[C@@H](CCCNC(=N)N)C(=O)CF (Cbz-Val-[cisHyp]-Arg-CH2F)	1070 nM	IC50 [4]: 239 nM
CC(C)[C@H](NC(=O)OCc1ccccc1)C(=O)N1C[C@H](O)C[C@H]1C(=O)N[C@@H](CCCNC(=N)N)C(=O)CF (Cbz-Val-[Hyp]-Arg-CH2F)	290 nM	IC50 [4]: 209 nM
CC(C)C[C@H](NC(=O)OCc1ccccc1)C(=O)N[C@H](C(=O)N1CCC[C@H]1C(=O)N[C@@H](CCCNC(=N)N)C(=O)CF)C(C)C (Cbz-LVPR-CH2F)	1050 nM	Ki [2]: 90 nM; Activity [3]: inactive
CC(C)C[C@H](NC(=O)OCc1ccccc1)C(=O)N1CCC[C@H]1C(=O)N[C@@H](CCCNC(=N)N)C(=O)CF (Cbz-Leu-Pro-Arg-CH2F)	5490 nM	–
CC(C)[C@H](NC(=O)c1ccc(Br)cc1)C(=O)N1C[C@H](O)C[C@H]1C(=O)N[C@@H](CCCNC(=N)N)C(=O)CF	70 nM	–
N=C(N)NCCC[C@H](NC(=O)[C@@H]1CCCN1C(=O)C1(NC(=O)OCc2ccccc2)CCCC1)C(=O)CF (Cbz-[Ac5c]-Pro-Arg-CH2F)	4310 nM	–
CC(C)[C@H](NC(=O)c1ccc(Br)cc1)C(=O)N1CCOC[C@H]1C(=O)N[C@@H](CCCNC(=N)N)C(=O)CF	460 nM	–
N=C(N)NCCC[C@H](NC(=O)[C@@H]1CCCN1C(=O)[C@@H](NC(=O)OCc1ccccc1)c1ccccc1)C(=O)CF (Cbz-[Phg]-Pro-Arg-CH2F)	8050 nM	–

Reference: ChEMBL document CHEMBL4340530, “Peptide-based covalent inhibitors of MALT1 paracaspase” (Bioorg Med Chem Lett, 2019)
